Measured values published in patent US20240050513A1, “COMPOSITION FOR PREVENTING, AMELIORATING, OR TREATING DISEASE CAUSED BY PROTEIN NITRATION […] WITH TERMINAL TYROSINE AS EFFECTIVE COMPONENT” (INDUSTRY-ACADEMIC COOPERATION FOUNDATION GYEONGSANG …, priority 2021, published 2024).
Like-named read-outs stand apart in the source and are kept apart here.

Experiments:
[1] = tested on: high-fat diet C57BL/6 mice
Description: Three-week-old male C57BL/6 mice were purchased from Koatech and housed in the animal facility under controlled conditions of temperature (22±2° C.), humidity (50±5%), and a 12-hour light-dark cycle. Two mice were housed per a cage. […] The mice were maintained on their respective diets for a duration of 17 weeks.
With an interval of one week, the body weight and food intake of each animal were measured. Additionally, at 1, 5, or 8 weeks after the start of the experiment, fasting blood glucose level was measured using an Accu-Check glucose meter.
At 15 weeks after the start of the test, a glucose tolerance test (GTT) was performed, and at 16 weeks, an insulin tolerance test (ITT) was carried out. For the
GTT, after a 12-hour fasting period, a glucose solution of 2 g/kg was administered through intraperitoneal injection, and blood samples were collected from the vein at 0, 20, 60, 90, and 120 minutes to measure blood glucose level. For the ITT, after a 6-hour fasting period, insulin at a dose of 0.75 U/kg was administered through intraperitoneal injection, and blood samples were collected from the vein at 0, 15, 30, 60, and 120 minutes to measure blood glucose level.
The urine volume (ml) was measured by collecting urine from the metabolic cages over a 16-hour period, and the fat mass was measured for each mouse using the EchoMRITM device and expressed as a percentage (%) of body weight.
The insulin concentration was measured using an ELISA kit (Crystal Chem, Ultra-Sensitive Mouse Insulin ELISA Kit), and the alanine aminotransferase (ALT) concentration was measured using an assay kit (IVD Lab Co., ChemiLab GPT (ALT) assay kit). Additionally, the concentration of reactive oxygen species/reactive nitrogen species (ROS/RNS) was measured by using an assay kit (Cell Biolabs, Inc., OxiSelect™ In Vitro ROS/RNS Assay Kit).
After anesthesia, liver tissues were dissected and rapidly frozen in liquid nitrogen. Some tissues were fixed in 10% formalin, and 5 μm-thick tissue slides were prepared from paraffin blocks. The tissues were then stained with H&E (hematoxylin and eosin) and observed under a microscope (Olympus, CKX41) for imaging.
A decrease in insulin receptor in muscles in metabolic disorders reduces the sensitivity to insulin signal, thus limiting the ability to utilize glucose in the muscles to cause sarcopenia. The liver tissue was homogenized in RIPA buffer, and protein quantification was performed using the BCA method. Western blot analysis was then conducted using an anti-insulin receptor-beta (IRβ) antibody.
It is known that a decrease in renal function leads to an increase in the concentration of albumin and a decrease in creatinine in urine. Therefore, the albumin and creatinine levels in urine were measured using mouse albumin ELISA kit (Abcam) and creatinine assay kit (Abcam), respectively, in each test animal. The albumin/creatinine ratio was then calculated. Additionally, 10 μL of blood plasma or 40 mg of homogenized liver tissue were subjected to centrifugation at 10,000 g for 10 minutes, and the supernatant was separated to measure the triglycerides (TG) level in plasma or liver by using a triglyceride measurement kit (Cayman).

[2] = tested on: glutamine synthetase (GS); assay: Hippocampal glutamine synthetase activity in kainic acid epileptic seizure model
Description: Kainic acid (KA) was dissolved in saline by heating in a water bath, resulting in a 4.5 mg/ml KA solution. The resulting KA solution was then intraperitoneally injected at a dose of 36 mg/kg, and seizure level and symptoms were recorded for 2 hours. The brain tissues (prefrontal cortex and hippocampus) of the mice that survived 16 hours or 5 days after the KA injection were collected.
To a 96-well plate, 2 μl of hippocampal homogenate was added, and 50 μl of 50 mM imidazole-HCl buffer (pH 6.8) were added to adjust the volume to 50 μl. Then, 50 μl of GS assay buffer (50 mM imidazole-HCl, pH 6.8, 25 mM L-glutamine, 12.5 mM hydroxylamine, 12.5 mM sodium arsenate, 1 mM MnCl2, and 0.08 mM ADP) were added and the reaction was allowed to occur at 37° C. for approximately 40 minutes. […] To terminate the reaction, 100 μl of stop solution (90 mM FeCl3, 1.8 N HCl, and 1.45% w/v trichloroacetic acid) were added to both the samples and the standard substance, and the absorbance was measured at 560 nm. The GS activity in each sample was determined by comparing it with the standard curve. GS activity was expressed as the generation amount of γ-glutamylhydroxamate, which is produced as a final product, and described in unit of μM/min/μg protein.

[3] = tested on: azoxymethane (AOM) hyperammonemia C57BL/6 mice; assay: Azoxymethane-induced hyperammonemia model; format: in vivo
Description: They were allowed free access to water and food. The mice were divided into four groups: (1) control group (Control), (2) hyperammonemia group administered with water (Veh+AOM), (3) hyperammonemia group administered with 100 mg/kg YQ peptide (YQ100+AOM), and (4) hyperammonemia group administered with 200 mg/kg YQ peptide (YQ200+AOM). YQ peptide was administered orally once a day for four consecutive days. On the fourth day, 2 hours after the last oral administration of YQ peptide, azoxymethane (AOM) at a dose of 100 mg/kg was intraperitoneally injected to induce hyperammonemia. To prevent dehydration 12 hours after AOM administration, 200 μl of physiological saline containing 0.5% glucose were injected into the abdominal cavity.
Ammonia is a primary metabolite of amino acids and nucleic acids, and the main enzymes involved in the conversion of ammonia into urea in urea cycle are found only in liver cells. In addition, the liver tissue is also rich in enzymes such as GS (glutamine synthetase) and SOD (superoxide dismutase), which help lower ammonia level, and catalase which removes reactive oxygen species. Therefore, a change in blood ammonia level as it travels from the liver to the brain through the bloodstream serves as an important indicator of hepatic encephalopathy. Accordingly, to measure the amount of blood ammonia, a PocketChem BA PA-4140 analyzer (Arkray, Japan), which is a single-wavelength reflectance measurement analyzer, was utilized. The analyzer measures the absorbance at 635 nm (LED) wavelength after the reaction 20 μl of blood with the test strip at room temperature for 3 minutes.
Western blot analysis was performed using an antibody against nitrotyrosine.

catalase (CAT) = assay: Hippocampal catalase activity in ischemic stroke model; format: in vivo, Mongolian gerbils; settings: hippocampus, 200 mg/kg i.p. once, twenty-four hours after reperfusion
Description: Three-month-old male Mongolian gerbils were induced with general anesthesia using 3% isoflurane and the anesthesia was maintained with 2.5% isoflurane gas. After sterilizing the neck area, a midline incision was made to expose both common carotid arteries, and microvessel clip was used to block the blood flow for 5 minutes, inducing cerebral ischemia to simulate a stroke. During the application of the microvessel clip, the body temperature was maintained at 37.0±0.5° C., and animals undergoing sham operation were used as the control group.
After inducing ischemia, the animal was, under reperfusion, intraperitoneally administered once with YQ peptide at a dose of 200 mg/kg. Two hours or twenty-four hours after the reperfusion, the animal was anesthetized with avertin. Then, the skull was quickly opened, and the brain was rapidly removed. The hippocampal tissue was collected and rapidly frozen in liquid nitrogen, then stored in a deep freezer. Subsequently, the activities of superoxide dismutase (SOD) and catalase (CAT) were measured by using SOD colorimetric activity kit and CAT colorimetric activity kit, respectively.

[4] = YQ200+AOM (200 mg/kg) vs veh+AOM, p<0.05

## tyrosine-glutamine [YQ]
[1]; HFD+1xYQ vs HFD, 1, 5 or 8 weeks
  fasting blood glucose level: decrease in blood glucose level
[1]; HFD+3xYQ vs HFD
  body weight: lower body weight
  fat mass: decrease
[1]; HFD+3xYQ vs HFD, 1, 5 or 8 weeks
  fasting blood glucose level: decrease in blood glucose level
[1]; HFD+3xYQ vs HFD, 15 weeks
  blood glucose level, glucose tolerance test (GTT): decrease in blood glucose level
[1]; HFD+3xYQ vs HFD, 16-hour collection
  urine volume: decrease
[1]; HFD+3xYQ vs HFD, 16 weeks
  blood glucose level, insulin tolerance test (ITT): decrease in blood glucose level
[1]; liver tissue, Western blot, HFD+3xYQ vs HFD
  expression level of IRβ: increase
[2]; kainic acid-treated animals, YQ i.p vs normal diet
  activity of glutamine synthetase: statistically significantly increased
[2]; survived mice after kainic acid, 3xYQ
  activity of the glutamine synthetase in the hippocampal tissue: increased
[3]; [4]
  expression level of nitrotyrosine in liver tissues: statistically significant decrease
  serum ammonia concentration: statistically significant decrease
[3]; YQ oral once a day four days (100 or 200 mg/kg)
  increase in blood ammonia caused by AOM: significantly suppressed
[3]; YQ oral once a day four days, after AOM
  nitrotyrosine protein level in the liver tissue: significantly reduced
Catalase (CAT)
  CAT activity: activity increases
